Values after ≈ are worked out from the molar mass of the structure shown. Each block holds one compound with its values, some of them ahead of it.
Legend:
[1] = test system: RPMI 8226; assay: Multiple myeloma cell growth inhibition, MTT, 72 h; format: cell-based; conditions: Homo sapiens
Description: Multiple myeloma cell lines: RPMI8226 (multiple myeloma), purchased from Fuxiang Bio-tech Co. Ltd., Shanghai, China.
(§1) 6000 well-growing cells were obtained and inoculated into wells of a 96-well cell culture plate. […] On the next day, the 1-oxo/acylated-14-acylated oridonin derivatives of different concentrations were added and mixed uniformly. The plate was placed in a carbon dioxide cell incubator (5% CO2) at 37° C. and incubated for 72 hours. Then the viable cell concentration was determined by MTT method.

[2] = test system: Jurkat; assay: Leukemia cell growth inhibition, MTT, 72 h; format: cell-based, human; conditions: for IC50 / IC90: Homo sapiens, Jurkat, 72 h, MTT
Description: (§2) Leukemia cell lines: leukemia cell lines: K562/adr (drug-resistant, chronic myeloid leukemia, CML), NB4 (acute promyelocytic leukemia, AML), Kasumi-1 (acute myeloid leukemia M2 type, AML-M2), Jurkat (acute lymphoblastic leukemia, ALL), all of which were donated by Cancer Research Institute of Zhejiang University, China; and H9 (acute lymphoblastic leukemia, ALL), which was purchased from China Center for Type Culture Collection.
as §1, with “6000 well-growing leukemia cells were” for “6000 well-growing cells were”, “C. and was incubated for” for “C. and incubated for”

[3] = test system: NB4; assay: Leukemia cell growth inhibition, MTT, 72 h; format: cell-based, human; conditions: Homo sapiens, NB-4; 72 h, MTT
Description: as §2
as §1, with “6000 well-growing leukemia cells were” for “6000 well-growing cells were”, “C. and was incubated for” for “C. and incubated for”

[4] = test system: H9; assay: Leukemia cell growth inhibition, MTT, 72 h; format: cell-based, human; conditions: Homo sapiens, H9; 72 h, MTT
Description: as §2
as §1, with “6000 well-growing leukemia cells were” for “6000 well-growing cells were”, “C. and was incubated for” for “C. and incubated for”

[5] = test system: K562/ADR; assay: Leukemia cell growth inhibition, MTT, 72 h; format: cell-based; conditions: Homo sapiens
Description: as §2
as §1, with “6000 well-growing leukemia cells were” for “6000 well-growing cells were”, “C. and was incubated for” for “C. and incubated for”

[6] = test system: Kasumi-1; assay: Leukemia cell growth inhibition, MTT, 72 h; format: cell-based; conditions: Homo sapiens
Description: as §2
as §1, with “6000 well-growing leukemia cells were” for “6000 well-growing cells were”, “C. and was incubated for” for “C. and incubated for”

[7] = test system: Hep G2; assay: Solid tumor cell growth inhibition, MTT, 72 h; format: cell-based; conditions: Homo sapiens, HepG2
Description: (§3) 6000 well-growing human solid tumor cells were obtained and inoculated into wells of a 96-well cell culture plate. The culture medium was DMEM High Glucose cell culture medium containing 10% fetal bovine serum. The plate was placed in a carbon dioxide cell incubator (5% CO2) at 37° C. and incubated for 24 hours. After added with 1-oxo/acylated-14-acylated oridonin derivatives of different concentration and mixed uniformly, the plate was placed in a carbon dioxide cell incubator (5% CO2) at 37° C. and incubated for 72 hours. Then the viable cell concentration was determined by MTT method.

[8] = test system: A549; assay: Solid tumor cell growth inhibition, MTT, 72 h; format: cell-based; conditions: Homo sapiens
Description: as §3

[9] = test system: Becap-37; assay: Solid tumor cell growth inhibition, MTT, 72 h; format: cell-based; conditions: Homo sapiens
Description: as §3

[10] = test system: PC-3; assay: Solid tumor cell growth inhibition, MTT, 72 h; format: cell-based; conditions: Homo sapiens
Description: as §3

[11] = test system: SK-OV-3; assay: Solid tumor cell growth inhibition, MTT, 72 h; format: cell-based; conditions: Homo sapiens, SK-OV-3, 72 h, MTT; for IC50: read-out: IC50 SK-OV-3; for IC90: read-out: IC90 SK-OV-3
Description: as §3

[12] = test system: PANC-1; assay: Solid tumor cell growth inhibition, MTT, 72 h; format: cell-based; conditions: Homo sapiens
Description: as §3

[13] = test system: CaEs-17; assay: Solid tumor cell growth inhibition, MTT, 72 h; format: cell-based; conditions: Homo sapiens, CaEs17
Description: as §3

[14] = test system: U87-MG; assay: Solid tumor cell growth inhibition, MTT, 72 h; format: cell-based; conditions: Homo sapiens, U-87 MG
Description: as §3

[15] = test system: RKO; assay: Solid tumor cell growth inhibition, MTT, 72 h; format: cell-based; conditions: Homo sapiens
Description: as §3

[16] = test system: MG-63; assay: Solid tumor cell growth inhibition, MTT, 72 h; format: cell-based; conditions: Homo sapiens
Description: as §3

[17] = test system: Hela; assay: Solid tumor cell growth inhibition, MTT, 72 h; format: cell-based, human; conditions: Homo sapiens, HeLa; 72 h, MTT
Description: as §3

[18] = test system: MGC-803; assay: Solid tumor cell growth inhibition, MTT, 72 h; format: cell-based, human; conditions: Homo sapiens, MGC-803; 72 h, MTT
Description: as §3

[19] = test system: Hep-2; assay: Solid tumor cell growth inhibition, MTT, 72 h; format: cell-based, human; conditions: Homo sapiens, HEp-2; 72 h, MTT
Description: as §3

[20] = test system: CNE; assay: Solid tumor cell growth inhibition, MTT, 72 h; format: cell-based, human; conditions: Homo sapiens, CNE; 72 h, MTT
Description: as §3

IC50 [1]: 0.26 µg/mL (≈ 0.524 µM) | IC90 [1]: 0.96 µg/mL (≈ 1.93 µM) | IC50 [2]: 0.44 µg/mL (≈ 0.886 µM) | IC90 [2]: 2.88 µg/mL (≈ 5.8 µM) | IC50 [3]: 0.07 µg/mL (≈ 0.141 µM) | IC90 [3]: 0.49 µg/mL (≈ 0.987 µM) | IC50 [4]: 0.38 µg/mL (≈ 0.765 µM) | IC90 [4]: 0.92 µg/mL (≈ 1.85 µM) | IC50 [5]: 0.4 µg/mL (≈ 0.806 µM) | IC90 [5]: 1.44 µg/mL (≈ 2.9 µM) | IC50 [6]: 0.43 µg/mL (≈ 0.866 µM) | IC90 [6]: 1.05 µg/mL (≈ 2.11 µM) | IC50 [7]: 0.84 µg/mL (≈ 1.69 µM) | IC90 [7]: 5.27 µg/mL (≈ 10.6 µM) | IC50 [8]: 1.71 µg/mL (≈ 3.44 µM) | IC90 [8]: 4.31 µg/mL (≈ 8.68 µM) | IC50 [9]: 0.7 µg/mL (≈ 1.41 µM) | IC90 [9]: 2.78 µg/mL (≈ 5.6 µM) | IC50 [10]: 1.22 µg/mL (≈ 2.46 µM) | IC90 [10]: 3.16 µg/mL (≈ 6.36 µM) | IC50 [11]: 1.22 µg/mL (≈ 2.46 µM) | IC90 [11]: 3.16 µg/mL (≈ 6.36 µM) | IC50 [12]: 1.26 µg/mL (≈ 2.54 µM) | IC90 [12]: 4.91 µg/mL (≈ 9.89 µM) | IC50 [13]: 0.81 µg/mL (≈ 1.63 µM) | IC90 [13]: 3.03 µg/mL (≈ 6.1 µM) | IC50 [14]: 0.7 µg/mL (≈ 1.41 µM) | IC90 [14]: 2.16 µg/mL (≈ 4.35 µM) | IC50 [15]: 0.31 µg/mL (≈ 0.624 µM) | IC90 [15]: 0.84 µg/mL (≈ 1.69 µM) | IC50 [16]: 0.28 µg/mL (≈ 0.564 µM) | IC90 [16]: 0.75 µg/mL (≈ 1.51 µM) | IC50 [17]: 1.16 µg/mL (≈ 2.34 µM) | IC90 [17]: 3.4 µg/mL (≈ 6.85 µM) | IC50 [18]: 0.7 µg/mL (≈ 1.41 µM) | IC90 [18]: 5.4 µg/mL (≈ 10.9 µM) | IC50 [19]: 1.3 µg/mL (≈ 2.62 µM) | IC90 [19]: 5.6 µg/mL (≈ 11.3 µM) | IC50 [20]: 1.09 µg/mL (≈ 2.2 µM) | IC90 [20]: 4.45 µg/mL (≈ 8.96 µM)
Structure (SMILES): C=C1C(=O)[C@]23[C@H](OC(=O)c4ccc(OC)cc4)[C@H]1CC[C@H]2[C@@]12CO[C@@]3(O)[C@@H](O)[C@@H]1C(C)(C)CCC2=O [BS-OR-005]
anti-Jurkat cell line activity increased ([2]; as compared with oridonin): ~4 fold

IC50 [1]: 0.37 µg/mL (≈ 0.783 µM) | IC90 [1]: 2.59 µg/mL (≈ 5.48 µM) | IC50 [2]: 0.71 µg/mL (≈ 1.5 µM) | IC90 [2]: 4.45 µg/mL (≈ 9.42 µM) | IC50 [3]: 0.08 µg/mL (≈ 0.169 µM) | IC90 [3]: 0.47 µg/mL (≈ 0.995 µM) | IC50 [4]: 0.41 µg/mL (≈ 0.868 µM) | IC90 [4]: 0.92 µg/mL (≈ 1.95 µM) | IC50 [5]: 0.47 µg/mL (≈ 0.995 µM) | IC90 [5]: 1.86 µg/mL (≈ 3.94 µM) | IC50 [6]: 0.71 µg/mL (≈ 1.5 µM) | IC90 [6]: 1.76 µg/mL (≈ 3.72 µM) | IC50 [7]: 1.54 µg/mL (≈ 3.26 µM) | IC90 [7]: 10.8 µg/mL (≈ 22.9 µM) | IC50 [8]: 2.13 µg/mL (≈ 4.51 µM) | IC90 [8]: 5.34 µg/mL (≈ 11.3 µM) | IC50 [9]: 1.02 µg/mL (≈ 2.16 µM) | IC90 [9]: 3.8 µg/mL (≈ 8.04 µM) | IC50 [10]: 1.69 µg/mL (≈ 3.58 µM) | IC90 [10]: 4.6 µg/mL (≈ 9.73 µM) | IC50 [11]: 1.69 µg/mL (≈ 3.58 µM) | IC90 [11]: 4.6 µg/mL (≈ 9.73 µM) | IC50 [12]: 1.63 µg/mL (≈ 3.45 µM) | IC90 [12]: 8.55 µg/mL (≈ 18.1 µM) | IC50 [13]: 0.93 µg/mL (≈ 1.97 µM) | IC90 [13]: 5.32 µg/mL (≈ 11.3 µM) | IC50 [14]: 0.78 µg/mL (≈ 1.65 µM) | IC90 [14]: 3.21 µg/mL (≈ 6.79 µM) | IC50 [15]: 0.43 µg/mL (≈ 0.91 µM) | IC90 [15]: 0.95 µg/mL (≈ 2.01 µM) | IC50 [16]: 0.42 µg/mL (≈ 0.889 µM) | IC90 [16]: 0.96 µg/mL (≈ 2.03 µM) | IC50 [17]: 1.64 µg/mL (≈ 3.47 µM) | IC90 [17]: 4.92 µg/mL (≈ 10.4 µM) | IC50 [18]: 0.95 µg/mL (≈ 2.01 µM) | IC90 [18]: 9.79 µg/mL (≈ 20.7 µM) | IC50 [19]: 1.76 µg/mL (≈ 3.72 µM) | IC90 [19]: 9.2 µg/mL (≈ 19.5 µM) | IC50 [20]: 1.33 µg/mL (≈ 2.81 µM) | IC90 [20]: 5.16 µg/mL (≈ 10.9 µM)
Structure (SMILES): C=C1C(=O)[C@]23[C@H](OC(=O)c4cccs4)[C@H]1CC[C@H]2[C@@]12CO[C@@]3(O)[C@@H](O)[C@@H]1C(C)(C)CCC2=O [BS-OR-007]

IC50 [1]: 0.37 µg/mL (≈ 0.77 µM) | IC90 [1]: 1.72 µg/mL (≈ 3.58 µM) | IC50 [2]: 0.73 µg/mL (≈ 1.52 µM) | IC90 [2]: 2.6 µg/mL (≈ 5.41 µM) | IC50 [3]: 0.29 µg/mL (≈ 0.603 µM) | IC90 [3]: 0.92 µg/mL (≈ 1.91 µM) | IC50 [4]: 0.76 µg/mL (≈ 1.58 µM) | IC90 [4]: 1.79 µg/mL (≈ 3.72 µM) | IC50 [5]: 0.52 µg/mL (≈ 1.08 µM) | IC90 [5]: 2.33 µg/mL (≈ 4.85 µM) | IC50 [6]: 0.73 µg/mL (≈ 1.52 µM) | IC90 [6]: 1.84 µg/mL (≈ 3.83 µM) | IC50 [7]: 1.74 µg/mL (≈ 3.62 µM) | IC90 [7]: 12.6 µg/mL (≈ 26.2 µM) | IC50 [8]: 2.75 µg/mL (≈ 5.72 µM) | IC90 [8]: 6.86 µg/mL (≈ 14.3 µM) | IC50 [9]: 1.08 µg/mL (≈ 2.25 µM) | IC90 [9]: 3.35 µg/mL (≈ 6.97 µM) | IC50 [10]: 1.59 µg/mL (≈ 3.31 µM) | IC90 [10]: 3.67 µg/mL (≈ 7.64 µM) | IC50 [11]: 1.59 µg/mL (≈ 3.31 µM) | IC90 [11]: 3.67 µg/mL (≈ 7.64 µM) | IC50 [12]: 1.73 µg/mL (≈ 3.6 µM) | IC90 [12]: 11.4 µg/mL (≈ 23.6 µM) | IC50 [13]: 1.22 µg/mL (≈ 2.54 µM) | IC90 [13]: 4.75 µg/mL (≈ 9.88 µM) | IC50 [14]: 0.86 µg/mL (≈ 1.79 µM) | IC90 [14]: 2.4 µg/mL (≈ 4.99 µM) | IC50 [15]: 0.47 µg/mL (≈ 0.978 µM) | IC90 [15]: 0.94 µg/mL (≈ 1.96 µM) | IC50 [16]: 0.42 µg/mL (≈ 0.874 µM) | IC90 [16]: 0.98 µg/mL (≈ 2.04 µM) | IC50 [17]: 1.45 µg/mL (≈ 3.02 µM) | IC90 [17]: 3.9 µg/mL (≈ 8.12 µM) | IC50 [18]: 1.39 µg/mL (≈ 2.89 µM) | IC90 [18]: 3.89 µg/mL (≈ 8.09 µM) | IC50 [19]: 3.11 µg/mL (≈ 6.47 µM) | IC90 [19]: 13.2 µg/mL (≈ 27.4 µM) | IC50 [20]: 2.16 µg/mL (≈ 4.49 µM) | IC90 [20]: 10.5 µg/mL (≈ 21.8 µM)
Structure (SMILES): C=C1C(=O)[C@]23[C@H](OC(=O)c4cccc(C)c4)[C@H]1CC[C@H]2[C@@]12CO[C@@]3(O)[C@@H](O)[C@@H]1C(C)(C)CCC2=O [BS-OR-008]
